One assay concerns HS-rats. The experiment in a line: Organ injury and dysfunction induced by trauma haemorrhage (haemorrhagic shock) in the rat. It is filed as in vivo, Wistar rats. On the procedure: Thirty-five male Wistar rats (271±5 g) were anaesthetised with sodium thiopentone (120 mg/kg i.p., LINK Pharmaceuticals Ltd., West Sussex, UK) and anaesthesia was maintained by supplementary injections (˜10 mg/kg i.v.) of sodium thiopentone as and when required. The animals were placed onto a thermostatically controlled heating mat (Harvard Apparatus Ltd., Kent, UK) and body temperature was maintained at 37±1° C. by means of a rectal probe attached to a homeothermic blanket. A tracheotomy was performed by inserting into the lumen of the trachea a small length of polyethylene tubing [Internal Diameter (ID) 1.67 mm, Portex, Kent, UK] to maintain airway patency and facilitate spontaneous respiration.
The right carotid artery was cannulated (ID 0.58 mm, Portex) to facilitate the withdrawal of blood using a heparinised syringe. The right jugular vein was cannulated (ID 0.40 mm, Portex) for the administration of Ringer's Lactate (RL), shed blood, test compounds and/or vehicle. The bladder was also cannulated (ID 0.76 mm, Portex) for the collection of urine. Upon completion of the surgical procedure, cardiovascular parameters were allowed to stabilise for a period of 15 min.
After the stabilisation period, blood was withdrawn via the cannula inserted in the right carotid artery in order to achieve a fall in MAP to 35±5 mmHg within 10 min. From this point onwards, MAP was maintained at 35±5 mmHg for a period of 90 min either by further withdrawal of blood during the compensation phase (MAP rises following blood withdrawal due to sympathetic response) or administration of Ringer's Lactate i.v. during the decompensation phase (animals are unable to increase and maintain high MAP). The average volume of blood withdrawn during haemorrhage was 9.8±0.2 ml (n=31, across all haemorrhaged groups). At 90 min after initiation of haemorrhage, resuscitation was performed with 20 ml/kg Ringer's Lactate i.v. over a period of 10 min and then half the shed blood mixed with 100 u/ml heparinised saline i.v. over a period of 50 min. At the end of 1 h resuscitation, an i.v. infusion of Ringer's Lactate (1.5 ml/kg/h) was started as fluid replacement and maintained for a further 3 h.
Four hours after the onset of resuscitation, 1.2 ml blood was collected from the right carotid artery and decanted into serum gel tubes (Sarstedt, Numbrecht, Germany), after which the heart was removed to terminate the experiment. The samples were centrifuged (9900 rpm for 3 min) to separate serum from which urea, creatinine, aspartate aminotransferase (AST), alanine aminotransferase (ALT) and creatinine kinase (CK) were measured within 24 hours (Idexx Laboratories Ltd., West Yorkshire, UK). Urine collected during the last 3 h of the experiment was analysed for creatinine levels in order to estimate creatinine clearance as an indicator of glomerular dysfunction and was calculated as follows: […]
Sham-operated rats underwent identical surgical procedures but without haemorrhage or resuscitation.

Assay [1] relates to rats subjected to regional myocardial ischaemia and reperfusion. Description: Regional myocardial ischaemia and reperfusion, vehicle 5% sodium bicarbonate. The settings on record: for infarct size (percentage of the AAR): control 57.6±2.1%; for area at risk: compared to vehicle treated rats. It counts as in vivo, Wistar rats. On the procedure:
Rats were anaesthetised with thiopentone sodium (Intraval® 120 mg/kg i.p.). Anaesthesia was maintained by supplementary injections of thiopentone sodium as required. The trachea was cannulated and the animals were ventilated with a Harvard ventilator (inspiratory oxygen concentration: 30%; 70 strokes/min, tidal volume: 8-10 ml/kg). Body temperature was maintained at 37±1° C. with the aid of a rectal probe thermometer attached to a homeothermic blanket unit (Harvard Apparatus Ltd., Edenbridge, Kent, U.K.). […] The right jugular vein was then cannulated for the administration of drugs and saline. A para-sternal thoracotomy was then performed, using an Electrosurgery device to cauterize the intercostals arteries before cutting through three ribs. The chest was retracted and pericardium dissected from the heart. The left anterior descending (LAD) coronary artery was isolated and a snare occluder was placed around the LAD. The retractor was then removed and the animal was allowed to stabilise for 15 min.
The occluder was tightened at time 0. After 25 min of LAD-occlusion, the occluder was released to allow reperfusion of the previously ischemic myocardium (2 h). Haemodynamic parameters were continuously monitored. Baseline readings were taken prior to treatment, and, myocardial ischaemia reperfusion (IR) injury. The pressure rate index (PRI), a relative indicator of myocardial oxygen consumption was calculated as a product of the MAP (mmHg) and HR (beats/minute-bpm) and expressed in mm Hg bpm×10^−3.
At the end of the 2 h reperfusion period, the LAD was re-occluded and 1 ml of Evans Blue dye (2% w/v) was injected into the animal, via the jugular vein. The Evans Blue dye stains the tissue it can circulate through, therefore the non-perfused vascular (occluded) tissue remains un-coloured. Each animal was killed with an over-dose of anaesthetic, the heart excised, and excess dye washed off. […] The ischaemic and non-ischaemic tissue was weighed, and the AAR expressed as a percentage of the left ventricle. The tissue from the AAR was cut into small pieces and incubated with p-nitroblue tetrazolium (NBT, 0.5 mg/ml) for 30 min at 37° C. NBT is a reducing agent that reacts with dehydrogenases present in viable (non-infarcted) tissue to produce a dark blue formazan. Infarcted tissue (non-viable) will not have dehydrogenase activity and will therefore fail to stain. The stained tissue was separated from the infarcted tissue, weighed, and the infarct size expressed as a percentage of the AAR.
Sham-operated rats were subjected to surgical procedure without myocardial ischaemia and reperfusion.

Where [2] appears, read: 1 mg/kg i.v. on resuscitation, P>0.05.
The mark [3] stands for this setting: both 3 and 10 mg/kg i.v. on resuscitation, P<0.05.
Where [4] appears, read: bolus 0.3, 1 or 10 mg/kg upon reperfusion, P>0.05 vs Control.

Molecules are shown by their SMILES.

With `C[C@H]1[C@H](OC(=O)CCC(=O)O)O[C@@H]2O[C@@]3(C)CC[C@H]4[C@H](C)CC[C@@H]1[C@@]24OO3` [artesunate], the “rise in serum ALT” value in the assay on HS-rats (setting [2]) is recorded as “no significant effect”; with HS-rats (both 3 and 10 mg/kg i.v. on resuscitation, P<0.005), “significantly attenuated”. Moreover, the “rise in serum AST” value is given as “no significant effect” in the assay with HS-rats (setting [2]) and “significantly attenuated” in the assay on HS-rats (setting [3]). In addition, the “rise in serum creatinine” value with HS-rats (setting [2]) was “no significant effect”; in the assay on HS-rats (3 mg/kg i.v. on resuscitation, P<0.005 vs HS-rats) it was “significantly attenuated”; in the assay on HS-rats (10 mg/kg i.v. on resuscitation, P<0.005) it was “significantly attenuated”. Besides, the “rise in serum creatinine kinase” value was “no significant effect” in the assay with HS-rats (setting [2]) and “significantly attenuated” with HS-rats (setting [3]). Besides, the “rise in serum urea” value in the assay on HS-rats (setting [2]) is reported as “no significant effect”; with HS-rats (3 mg/kg i.v. on resuscitation, 4 h after onset of resuscitation, P<0.05 vs HS-rats) it was “significantly attenuated”. The “decline in MAP caused by haemorrhage during the resuscitation phase” value with HS-rats (1, 3 or 10 mg/kg i.v. on resuscitation, P>0.05) was “failed to attenuate”. Besides, the “infarct size (percentage of the AAR)” value in assay [1] (0.3 mg/kg i.v. bolus upon reperfusion) is recorded as 44.0±2.61%; in assay [1] (1 mg/kg i.v. upon reperfusion, P<0.05), 42.6±1.1%. Also, the area at risk result in assay [1] (0.3 mg/kg), in assay [1] (1 mg/kg) and in assay [1] (10 mg/kg) was “no significant effect” each time. In addition, in assay [1] (1 mg/kg i.v. upon reperfusion, vs control), the Infarct size reduction is 40%. The infarct size result in assay [1] (10 mg/kg i.v. upon reperfusion, P>0.05) was “no significant effect”. Also, the “fall in mean arterial blood pressure caused by myocardial ischaemia and reperfusion” value in assay [1] (setting [4]) was “did not attenuate”. Also, the heart rate result in assay [1] (setting [4]) was “did not have a significant effect”.

(Values after US9949948B2, “Artemisinin and its derivatives for use in the treatment of trauma haemorrhage and associated conditions” (Queen Mary University of London, priority 2011, dated 2018).)
